Results: patent US12115182B2, “Adenosine A2A agonists for the treatment of cytokine storm syndrome” (priority 2021, dated 2024)

Legend:
[1] = system: plasma proinflammatory cytokines/chemokines; test: Luminex plasma cytokines/chemokines in regadenoson-treated COVID-19 patients; format: in vivo, human
MMP-9 = test: Gelatin zymography of plasma MMP-9 in lung transplant recipients; format: in vivo, human; details: low and high dose vs control, 30 minutes after 1st and 2nd lung reperfusion
Method: We designed this trial mainly as a Phase I safety and feasibility study that would allow an optimal infusional dose to be determined based on dose-limiting toxicities identified in lung transplant recipients. We also evaluated the potential efficacy by clinical outcomes and the lab evaluation of various cytokines/chemokines, DAMPs and enzymes. Blood was drawn for cytokine/chemokine, DAMPs and MMP-2/-9 analysis at the following different timepoints: 1) before infusion, 2) 15 minutes before reperfusion of the 1st lung, 3) 30 minutes after reperfusion of 1st lung, 4) 30 minutes after reperfusion of 2nd lung, and 5) 6 hours after reperfusion of 1st lung. HMGB1 and sRAGE levels were measured using a customized human Cytokine/Chemokine multiplex immunoassay (Millipore Sigma, Burlington, MA) at The University of Virginia Flow Cytometry Core (RRID: SCR_01 7829) as previously described (LAU et al., J Heart Lung Transplant, (2020), 39:563-570).
Plasma samples were collected as described above. Protein concentrations were determined with BCA protein assay. Equal amounts of proteins (20 μg) were loaded in each lane for MMP-2 and-9 gelatinolytic activity detection by use of gelatin zymography as our previous publications (ZHAO et al., J Biol Chem, (2003), 278:15056-15064; ZHAO et al., Am J Physiol Lung Cell Mol Physiol, (2011), 300: L718-729).

[2] = cited from earlier work

For CNC(=O)c1cnn(-c2nc(N)c3ncn([C@@H]4O[C@H](CO)[C@@H](O)[C@H]4O)c3n2)c1 [Regadenoson], the measured cytokines reduced ([1]; 14-plex Luminex panel, after 4 hours of regadenoson infusion) was “Twelve of the fourteen”, the “levels of 13 pro-inflammatory cytokines, ratio over baseline” value ([1]; 30 minutes after start of RA infusion) was “very little effect” and the “pro-inflammatory cytokines reduced, ratio over baseline” value ([1]; 4.5 hours after start of RA infusion) was 11 of 13. For the same molecule, the “gelatinolytic activity of MMP-9 in plasma” value (MMP-9) was “significantly decreased”, the peak plasma level ([2]; 400 μg bolus over 10 seconds for myocardial perfusion imaging) was “about 15 ng/ml” and the steady-state plasma level ([2]; after infusion for 6 hours of 1.44 μg/kg/h, prior sickle cell disease trial) was “about 2 ng/ml”. The terminal half-life ([2]; in vivo) was 2 h and the “safety / side effects” value ([2]; infusion at 1.44 μg/kg/h for 24-48 h, sickle cell crisis and lung transplantation) was “safe and devoid of side effects”.
